For the data set, the system named is CCRIS mutagenicity, Ames/micronucleus/aberration tests. Put plainly: CCRIS mutagenicity studies.
Where [1] appears, read: Test System: AMES SALMONELLA TYPHIMURIUM, Strain/Indicator: TA100, Metabolic Activation: RAT, LIVER, S-9, AROCLOR 1254, Method: STANDARD PLATE.
Setting [2] is: Test System: AMES SALMONELLA TYPHIMURIUM, Strain/Indicator: TA100, Metabolic Activation: NONE, Method: STANDARD PLATE.

The source made the active and inactive calls. The rule behind the calls is not given here.

For `Nc1cccc(O)c1`, the mutagenic call runs as follows: (Test System: AMES SALMONELLA TYPHIMURIUM, Strain/Indicator: TA97, Metabolic Activation: HAMSTER, LIVER, S-9, AROCLOR 1254 (10%), Method: PREINCUBATION) “inactive; negative”; (Test System: AMES SALMONELLA TYPHIMURIUM, Strain/Indicator: TA97, Metabolic Activation: NONE, Method: PREINCUBATION) “inactive; negative”; (Test System: AMES SALMONELLA TYPHIMURIUM, Strain/Indicator: TA97, Metabolic Activation: RAT, LIVER, S-9, AROCLOR 1254 (10%), Method: PREINCUBATION) “inactive; negative”; (Test System: AMES SALMONELLA TYPHIMURIUM, Strain/Indicator: TA98, Metabolic Activation: HAMSTER, LIVER, S-9, AROCLOR 1254 (5 OR 10%), Method: PREINCUBATION) “active; positive”; (Test System: AMES SALMONELLA TYPHIMURIUM, Strain/Indicator: TA98, Metabolic Activation: HAMSTER, LIVER, S-9, AROCLOR 1254 (30%), Method: PREINCUBATION) “inactive; negative”; (Test System: AMES SALMONELLA TYPHIMURIUM, Strain/Indicator: TA98, Metabolic Activation: NONE) “inactive; negative”. The mutagenic call was “inactive; negative” (Test System: AMES SALMONELLA TYPHIMURIUM, Strain/Indicator: TA98, Metabolic Activation: NONE, Method: PREINCUBATION); “inactive; negative” (Test System: AMES SALMONELLA TYPHIMURIUM, Strain/Indicator: TA98, Metabolic Activation: RAT, LIVER, S-9, AROCLOR 1254 (5, 10 OR 30%), Method: PREINCUBATION); “inactive; negative” (Test System: AMES SALMONELLA TYPHIMURIUM, Strain/Indicator: TA98, Metabolic Activation: S-9); “inactive; negative” (Test System: AMES SALMONELLA TYPHIMURIUM, Strain/Indicator: TA100, Metabolic Activation: HAMSTER, LIVER, S-9, AROCLOR 1254 (10%), Method: PREINCUBATION); “inactive; negative” (Test System: AMES SALMONELLA TYPHIMURIUM, Strain/Indicator: TA100, Metabolic Activation: NONE, Method: PREINCUBATION); “inactive; negative” (Test System: AMES SALMONELLA TYPHIMURIUM, Strain/Indicator: TA100, Metabolic Activation: RAT, LIVER, S-9, AROCLOR 1254 (10%), Method: PREINCUBATION). Also, the mutagenic call is “inactive; negative” (Test System: AMES SALMONELLA TYPHIMURIUM, Strain/Indicator: TA1535, Metabolic Activation: HAMSTER, LIVER, S-9, AROCLOR 1254 (10%), Method: PREINCUBATION); “inactive; negative” (Test System: AMES SALMONELLA TYPHIMURIUM, Strain/Indicator: TA1535, Metabolic Activation: NONE, Method: PREINCUBATION); “inactive; negative” (Test System: AMES SALMONELLA TYPHIMURIUM, Strain/Indicator: TA1535, Metabolic Activation: RAT, LIVER, S-9, AROCLOR 1254 (10%), Method: PREINCUBATION).
On to `O=c1c2cccc3ccc4cccc1c4c32`, for which the mutagenic call under setting [1] is “active; positive”.
Take `CC1=CC(O)=NS(=O)(=O)O1`: the mutagenic call was “inactive; negative” (End Point: In vivo micronucleus, Test System: Peripheral blood normochromatic erythrocytes, Species: Mouse, Strain/Sex: FVB.N/TgN (v-Ha-ras) Tg.AC hemizygous/Female, Route: Oral); “inactive; negative” (End Point: In vivo micronucleus, Test System: Peripheral blood normochromatic erythrocytes, Species: Mouse, Strain/Sex: FVB.N/TgN (v-Ha-ras) Tg.AC hemizygous/Male, Route: Oral); “inactive; negative” (End Point: In vivo micronucleus, Test System: Peripheral blood normochromatic erythrocytes, Species: Mouse, Strain/Sex: p53 Haploinsufficient/ Female, Route: Oral); “active; positive” (End Point: In vivo micronucleus, Test System: Peripheral blood normochromatic erythrocytes, Species: Mouse, Strain/Sex: p53 Haploinsufficient/Male, Route: Oral); “inactive; negative. reevaluation of results: negative” (Test System: MOUSE LYMPHOMA, Strain/Indicator: L5178Y (TK+/TK-), Metabolic Activation: NONE, Method: SUSPENSION/PLATE); “inactive; negative. reevaluation of results: negative” (Test System: MOUSE LYMPHOMA, Strain/Indicator: L5178Y (TK+/TK-), Metabolic Activation: RAT, LIVER, S-9, AROCLOR 1254, Method: SUSPENSION/PLATE).
As to `O=[N+]([O-])c1cccc2c(Cl)nsc12`, the mutagenic call under setting [2] is “active; positive”.
Take `O=CC(O)C(O)C(O)CO` (stereo not given): the mutagenic call by setting is: (Test System: AMES SALMONELLA TYPHIMURIUM, Strain/Indicator: TA98, Metabolic Activation: NONE, Method: STANDARD PLATE) “inactive; negative”; (Test System: AMES SALMONELLA TYPHIMURIUM, Strain/Indicator: TA98, Metabolic Activation: RAT, LIVER, S-9, AROCLOR 1254, Method: STANDARD PLATE) “inactive; negative”; under setting [2], “inactive; negative”; under setting [1], “inactive; negative”; (Test System: AMES SALMONELLA TYPHIMURIUM, Strain/Indicator: TA1535, Metabolic Activation: NONE, Method: STANDARD PLATE) “inactive; negative”; (Test System: AMES SALMONELLA TYPHIMURIUM, Strain/Indicator: TA1535, Metabolic Activation: RAT, LIVER, S-9, AROCLOR 1254, Method: STANDARD PLATE) “inactive; negative”. Also, the mutagenic call is “inactive; negative” (Test System: AMES SALMONELLA TYPHIMURIUM, Strain/Indicator: TA1537, Metabolic Activation: NONE, Method: STANDARD PLATE); “inactive; negative” (Test System: AMES SALMONELLA TYPHIMURIUM, Strain/Indicator: TA1537, Metabolic Activation: RAT, LIVER, S-9, AROCLOR 1254, Method: STANDARD PLATE); “inactive; negative” (Test System: AMES SALMONELLA TYPHIMURIUM, Strain/Indicator: TA1538, Metabolic Activation: NONE, Method: STANDARD PLATE); “inactive; negative” (Test System: AMES SALMONELLA TYPHIMURIUM, Strain/Indicator: TA1538, Metabolic Activation: RAT, LIVER, S-9, AROCLOR 1254, Method: STANDARD PLATE); “inactive; negative” (Test System: E. COLI, Strain/Indicator: WP2, Metabolic Activation: NONE, Method: STANDARD PLATE); “inactive; negative” (Test System: E. COLI, Strain/Indicator: WP2, Metabolic Activation: RAT, LIVER, S-9, AROCLOR 1254, Method: STANDARD PLATE).

For the origin of these results see PubChem BioAssay AID1259407 (Chemical Carcinogenesis Research Information System (CCRIS), 2018).
